How the values were obtained:
[1] = system: mouse androgenetic hair loss model; test: Hair growth observation in mouse androgenetic hair loss model (DHT-induced); assay type: in vivo; conditions: C57BL/6 male mice, depilated back, FIG. 1
Description: (§1) Experimental animals: C57BL/6 male mice, 5-7 weeks old, weighing around 20 g were housed in a 12 hour light/12 hour dark environment, with free access to food and water. The experiment set up control group (CTRL); model group (DHT); A5-Low group (treated with Annexin A5, injected once every three days); and A5-High group (treated with Annexin A5, injected once a day). Each group consists of 6 mice.
(§2) Modeling and administration: Dihydrotestosterone (DHT) was used to induce the formation of the mouse androgenetic hair loss model. In addition to the control group, the other three groups of mice received subcutaneous injection of DHT solution (5 mg/mL) at the neck, 0.01 mL for each, for a total of 2 weeks. The control group was injected with an equal volume of physiological saline. After 2 weeks, all mice were shaved and their back hair was removed using a shaving knife. Then hair removal cream was used to further remove residual hair from the shaved area of the mice. After hair removal, both the control group and the model group were injected daily with […] of PBS in the hair removal area, divided into 10 injection points, with 20 μL per point. The A5-Low group received Annexin A5 treatment once every three days, while the A5-High group received Annexin A5 treatment once a day. […] The status of hair growth on the back of mice was observed every day and recorded by taking photos. […]

[2] = system: Ki67 (cell proliferation marker); test: Ki67 immunohistochemical staining of paraffin skin sections; assay type: in vivo, mouse; conditions: DHT model mice after Annexin A5 treatment; FIG. 3
Description: as §1, §2

[3] = system: CD31 (vascular angiogenesis marker); test: CD31 immunohistochemical staining of paraffin skin sections; assay type: in vivo, mouse; conditions: DHT model mice after Annexin A5 treatment; FIG. 3
Description: as §1, §2

[4] = system: transforming growth factor β1 (TGF β-1); test: Western Blot of TGF-β1 expression in isolated dermal papillae; assay type: in vivo, mouse; conditions: DHT model mice, A5-Low/A5 High groups, FIG. 4
Description: as §1
(§3) Modeling and administration: Dihydrotestosterone (DHT) was used to induce the formation of the mouse androgenetic hair loss model. In addition to the control group, the other three groups of mice received subcutaneous injection of DHT solution (5 mg/mL) at the neck, 0.01 mL for each, for a total of 2 weeks. The control group was injected with an equal volume of physiological saline. After 2 weeks, all mice were shaved and their back hair was removed using a shaving knife. […] The status of hair growth on the back of mice was observed every day and recorded by taking photos. […]
(§4) Sample Treatment: After euthanizing the mice, 1 cm^2 skin tissue was collected, and the hair on the skin surface was removed with a scissors as much as possible. […] The supernatant was collected by high-speed centrifugation, the protein concentration was determined using BCA method, and protein samples were prepared according to Western Blot requirements. […]

[5] = system: androgen receptor (AR); test: Western Blot of androgen receptor expression in isolated dermal papillae; assay type: in vivo, mouse; conditions: DHT model mice, A5-Low/A5 High groups, FIG. 4
Description: as §1, §3, §4

[6] = system: mouse androgenetic hair loss model; test: Histological HE staining analysis of skin sections; assay type: in vivo; conditions: DHT model mice treated with Annexin A5 for 2 weeks, FIG. 2
Description: as §1
Modeling and administration: Dihydrotestosterone (DHT) was used to induce the formation of the mouse androgenetic hair loss model. In addition to the control group, the other three groups of mice received subcutaneous injection of DHT solution (5 mg/mL) at the neck, 0.01 mL for each, for a total of 2 weeks. The control group was injected with an equal volume of physiological saline. After 2 weeks, all mice were shaved and their back hair was removed using a shaving knife. Then hair removal cream was used to further remove residual hair from the shaved area of the mice. After hair removal, both the control group and the model group were injected daily with […] of PBS in the hair removal area, divided into 10 injection points, with 20 μL per point. The A5-Low group received Annexin A5 treatment once every three days, while the A5-High group received Annexin A5 treatment once a day. The injection method was subcutaneous injection at 10 points in the hair removal area, with 20 μL of Annexin A5 at a concentration of 50 μg/mL injected at each point. The status of hair growth on the back of mice was observed every day and recorded by taking photos. Samples were collected after 16 days.
Tissue sampling: After drug treatment, mice were euthanized by cervical dislocation. […]
Sections were taken for xylene dewaxing and gradient ethanol hydration, and then hematoxylin and eosin staining was performed. […] The next day, an optical microscope was used to observe and record, and the number of hair follicles was statistical analyzed.

Substance: Annexin A5: calcium phospholipid binding protein composed of a single polypeptide chain of 319 amino acids
- entry into anagen phase (skin turning black) ([1]; A5-Low and A5-High groups): entered the anagen phase earlier
- hair growth ability ([1]; subcutaneous Annexin A5 50 μg/mL, 10 points x 20 μL, once every three days or once a day, observed 16 days): significantly enhanced hair growth ability
- proliferation and survival ability of cells in the hair follicles (Ki67) [2]: improved
- number of capillaries around the dermal papillae (CD31) [3]: increased
- TGF-β1 expression in dermal papillae [4]: significant inhibition
- AR expression in dermal papillae [5]: significant inhibition
- dermal thickness [6]: did not affect
- follicle size [6]: did not affect
- number of hair follicle dermal papillae [6]: did not affect

From patent US20260248882A1, “USE OF ANNEXIN A5 IN HAIR GROWTH, HAIR NURTURING, HAIR CARE, HAIR LOSS PREVENTION, AND HAIR LOSS TREATMENT, AND RELATED PRODUCTS AND PHARMACEUTICAL COMPOSITIONS” (SHANGHAI CELLEAF BIOTECHNOLOGY CO., LTD, priority 2023, published 2026)
